Values joined by “and” are separate entries in the source; they are usually repeats but may differ in a detail not shown here. Equal entries are not always repeated.
Legend:
mGluR1 = target: T1, mGluR1 (Homo sapiens, UniProt Q13255); assay: aequorin calcium assay, negative allosteric modulation of mGluR1; type: cell-based; settings: for mGluR1/mGluR5 Ratio: EC50 for mGluR1 divided by EC50 for mGluR5; for EC50: aequorin assay, agonist at EC80, 10000 = no activity observed at 10,000 nM
T1 construct: expression induced with doxycycline
T1 sequence (Q13255 19-1194): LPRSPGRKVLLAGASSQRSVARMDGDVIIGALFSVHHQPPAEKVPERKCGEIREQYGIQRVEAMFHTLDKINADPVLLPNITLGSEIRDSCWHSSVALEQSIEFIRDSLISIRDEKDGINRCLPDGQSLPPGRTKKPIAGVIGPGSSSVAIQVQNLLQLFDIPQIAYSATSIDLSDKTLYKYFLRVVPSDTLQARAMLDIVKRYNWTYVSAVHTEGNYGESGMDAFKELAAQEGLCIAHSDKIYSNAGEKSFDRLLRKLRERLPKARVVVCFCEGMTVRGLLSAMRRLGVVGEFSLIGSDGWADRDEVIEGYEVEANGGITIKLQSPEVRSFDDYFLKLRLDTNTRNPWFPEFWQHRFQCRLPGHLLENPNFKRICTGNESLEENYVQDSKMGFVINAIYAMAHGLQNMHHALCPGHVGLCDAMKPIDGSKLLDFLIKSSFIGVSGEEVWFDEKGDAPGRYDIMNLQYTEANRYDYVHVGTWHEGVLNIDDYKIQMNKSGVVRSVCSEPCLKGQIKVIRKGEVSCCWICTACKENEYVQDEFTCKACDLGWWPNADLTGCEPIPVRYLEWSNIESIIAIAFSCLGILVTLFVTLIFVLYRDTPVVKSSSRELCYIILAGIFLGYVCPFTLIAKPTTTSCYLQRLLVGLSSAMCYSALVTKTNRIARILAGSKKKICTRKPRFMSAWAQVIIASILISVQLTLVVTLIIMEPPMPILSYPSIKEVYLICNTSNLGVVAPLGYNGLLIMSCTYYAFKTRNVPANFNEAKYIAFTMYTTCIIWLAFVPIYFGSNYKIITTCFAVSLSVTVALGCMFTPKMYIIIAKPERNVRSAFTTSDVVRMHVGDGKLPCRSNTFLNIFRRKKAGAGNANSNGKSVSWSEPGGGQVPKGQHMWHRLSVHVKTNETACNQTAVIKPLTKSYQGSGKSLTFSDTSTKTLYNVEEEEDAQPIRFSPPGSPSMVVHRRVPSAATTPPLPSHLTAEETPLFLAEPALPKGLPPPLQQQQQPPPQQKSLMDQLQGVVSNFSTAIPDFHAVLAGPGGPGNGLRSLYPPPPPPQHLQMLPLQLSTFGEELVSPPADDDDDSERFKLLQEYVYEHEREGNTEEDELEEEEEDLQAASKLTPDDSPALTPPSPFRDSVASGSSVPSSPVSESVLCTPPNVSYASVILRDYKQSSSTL
Procedure: (§1) The ability of test compound to ameliorate the efflux of calcium cations (Ca^++) in the presence of agonist (glutamate or quisqualate) is measured by detection of light emitted by the luminescent protein aequorin triggered by binding of Ca^++. Aequorin is a photoprotein isolated from luminescent jellyfish (like various Aequorea species e.g. Aequorea victoria). Aequorin is composed of two distinct units, the apoprotein apoaequorin, with an approximate molecular weight of 22 kDa, and the prosthetic group, coelenterazine, responsible for emission of light. In the presence of molecular oxygen the two components of aequorin assemble spontaneously, forming the functional protein. Four EF-hand type regions have been identified in the structure of Aequorin and at least 3 of them function as binding sites for Ca+2 ions: Ca+2 binding to these EF hands triggers a conformational change of the protein, that leads it to oxidize its prosthetic group, coelenterazine, into excited coelenteramide and CO2. As the excited coelenteramide relaxes to the ground state, blue light (wavelength=469 nm) is emitted and can be measured by a luminometer. Negative allosteric modulator activity of test compound is expressed as a percentage of the stimulation of reference agonist (glutamate) activity at its EC80 concentration. Assay of Compounds was performed at Euroscreen SA, Gosselies, Belgium.
(§2) Cells stably transfected with mGlu1 or mGlu5 were grown 18 hours prior to the test in culture medium containing 600 ng/ml doxycycline, then were detached by gentle flushing with PBS-EDTA, recovered by centrifugation and resuspended in “assay buffer” (HBSS, 2.1 mM CaCl2, 3 μg/ml GPT (Glutamate-Pyruvate transaminase), 4 mM MEM Sodium Pyruvate, 0.1% BSA, protease free). Cells were incubated at room temperature for at least 4 h with coelenterazine-h. Dose response curves were performed using mGluR1 cells with the orthosteric agonist glutamate and negative allosteric modulator JNJ16259685. Dose response curves were performed using mGluR5 cells with the orthosteric agonist glutamate and negative allosteric modulator MPEP. For agonist testing, 30 μl of cell suspension were mixed with 30 μl of test compound or reference agonist in a 384-well plate. The resulting emission of light was recorded using the Hamamatsu Functional Drug Screening System 6000 (FDSS 6000). For negative allosteric modulator testing, 60 μl of the resulting cell suspension containing the test compound was mixed with 30 μl of the reference agonist at EC80 following an incubation of 3 min after the first injection. The resulting emission of light was recorded using FDSS 6000. […] Plates also contained the reference agonist at a concentration equivalent to the EC80 obtained during the test validation. Negative allosteric modulator activity of test compound was expressed as a percentage of the stimulation of reference agonist activity at its EC80 concentration.

mGluR5 = target: T2, mGluR5 (Homo sapiens, UniProt P41594); assay: aequorin calcium assay, negative allosteric modulation of mGluR5; type: cell-based; settings: aequorin assay, agonist at EC80; 10000 = no activity observed at 10,000 nM; read-out: mGluR5 EC50
T2 construct: expression induced with doxycycline
T2 sequence (P41594 21-1212): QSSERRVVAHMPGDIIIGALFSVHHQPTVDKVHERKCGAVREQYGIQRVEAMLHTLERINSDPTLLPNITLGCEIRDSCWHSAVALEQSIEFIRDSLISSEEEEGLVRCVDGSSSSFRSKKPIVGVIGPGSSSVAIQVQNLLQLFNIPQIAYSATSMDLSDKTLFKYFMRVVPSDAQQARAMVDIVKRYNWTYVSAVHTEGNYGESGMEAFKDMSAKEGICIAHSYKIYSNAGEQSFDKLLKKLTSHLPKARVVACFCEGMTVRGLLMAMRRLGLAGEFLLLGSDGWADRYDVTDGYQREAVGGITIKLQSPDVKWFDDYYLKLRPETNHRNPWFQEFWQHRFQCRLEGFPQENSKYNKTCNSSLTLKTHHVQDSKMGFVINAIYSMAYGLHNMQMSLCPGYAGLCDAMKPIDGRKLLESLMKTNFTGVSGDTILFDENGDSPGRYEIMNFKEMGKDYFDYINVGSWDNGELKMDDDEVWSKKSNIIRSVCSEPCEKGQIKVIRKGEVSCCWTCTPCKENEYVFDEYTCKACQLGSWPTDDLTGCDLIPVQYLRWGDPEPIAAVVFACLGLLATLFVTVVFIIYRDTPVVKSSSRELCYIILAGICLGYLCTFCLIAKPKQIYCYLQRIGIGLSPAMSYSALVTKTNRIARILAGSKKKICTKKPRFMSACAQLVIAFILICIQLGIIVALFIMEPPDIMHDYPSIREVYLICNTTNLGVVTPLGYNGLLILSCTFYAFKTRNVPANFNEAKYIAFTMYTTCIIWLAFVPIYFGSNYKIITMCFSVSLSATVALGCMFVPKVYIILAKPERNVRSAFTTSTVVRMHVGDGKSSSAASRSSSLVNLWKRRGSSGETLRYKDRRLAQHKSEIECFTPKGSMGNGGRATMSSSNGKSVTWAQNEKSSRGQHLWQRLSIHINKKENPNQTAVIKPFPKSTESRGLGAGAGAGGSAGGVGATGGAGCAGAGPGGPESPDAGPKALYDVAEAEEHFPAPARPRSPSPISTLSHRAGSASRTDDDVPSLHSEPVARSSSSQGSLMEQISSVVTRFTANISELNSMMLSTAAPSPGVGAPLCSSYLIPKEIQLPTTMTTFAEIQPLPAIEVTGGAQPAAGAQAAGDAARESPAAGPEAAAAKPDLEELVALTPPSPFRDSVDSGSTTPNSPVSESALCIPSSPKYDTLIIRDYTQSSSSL
Procedure: as §1, §2

[1] = test system: hyperalgesia in partial sciatic nerve ligation rat; assay: partial sciatic nerve ligation (PSN) model of neuropathic pain, paw withdrawal method; type: in vivo; settings: 100 μg intrathecal; for % MPE (0-100) 1 hr / Paw withdrawal thresholds (g; raw data) 1 hr / Raw MPE (%) 1 hr / % MPE (0-100) 3 hrs / Paw withdrawal thresholds (g; raw data) 3 hrs / Raw MPE (%) 3 hrs / % MPE (0-100) 5 hrs / Paw withdrawal thresholds (g; raw data) 5 hrs / Raw MPE (%) 5 hrs / % MPE (0-100) 24 hrs / Paw withdrawal thresholds (g; raw data) 24 hrs / Raw MPE (%) 24 hrs: PSN Sx rat
Procedure: Briefly, under gas anesthesia, the skin and muscles of the thigh were reflected to expose the sciatic nerve. About one-third to one-half of the cross-sectional area of the nerve was tightly ligated using a 7-0 nylon suture. The incision was closed in layers (suture for muscle, surgical adhesive for skin). […] Treated rats were assayed at 1, 3, 5, and 24 hr using the paw withdrawal method (L. Randall and J. Selitto, 1957, Arch. Int. Pharmacodynam., 111:409-19). […] The Partial sciatic nerve ligation assay was performed at Eurofins/Product Safety Laboratories (Dayton, N.J.).
Animals were housed in cages which conform to the size recommendations in the most recent NIH Guide for the Care and Use of Laboratory Animals. […] The animals were fed Purina Rodent Chow #5012. The animals were acclimated to the facility for 7 days prior to the study. A pre-operative baseline paw withdrawal measure was collected for all rats. […] After recovery, a pre-dosing baseline paw withdrawal threshold was collected for all rats. […] Rats were lightly anesthetized and treated with test article or vehicle. Paw withdrawal thresholds were determined at one, three, five, and 24 hours post dosing. […] Briefly, under gas anesthesia, the skin and muscles of the thigh were reflected to expose the sciatic nerve. About one third to one half of the cross-sectional area of the nerve was tightly ligated using a 7-0 nylon suture. The incision was closed in layers (suture for muscle, surgical adhesive for skin). Test article or vehicle was administered by transcutaneous injection (C. Mestre et al., 1994, J. Pharm. Tox. Meth., 32:197-200). Briefly, the rat was lightly anesthetized and placed to flex the lower lumbar vertebrae. After palpating the vertebral processes, a 26 gauge needle was inserted through a vertebral interspace. The presence of a tail flick was considered validation of the needle placement; the solution was then injected. Paw withdrawal thresholds were assessed using a paw pressure device (L. O. Randall & J. J. Selitto, 1957, Arch. Int. Pharmacodyn., 111:409-19). The behavioral endpoint was defined as paw withdrawal. Data was analyzed by two-way analysis of variance (repeated measures) with Bonferroni tests at individual time points. Paw withdrawal threshold raw values were used for the analysis, and each route of administration was analyzed separately. Vehicle-treated groups were used as the statistical comparison groups.

O=C(Nc1cccc(Cl)c1)c1cc(Cl)ccc1O [Compound 14]
mGluR1/mGluR5 Ratio (mGluR1): 4.15 | EC50 (mGluR1): 523 nM | EC50 (mGluR5): 126 nM

N#Cc1cccc(NC(=O)c2cc(Cl)ccc2O)c1 [Compound 16, 5-Chloro-N-(3-cyanophenyl)-2-hydroxybenzamide]
mGluR1/mGluR5 Ratio (mGluR1): 42.55 | EC50 (mGluR1): > 10000 nM | EC50 (mGluR5): 235 nM

O=C(Nc1cccc(F)c1)c1cc(Cl)ccc1O [Compound 17]
mGluR1/mGluR5 Ratio (mGluR1): 4.33 | EC50 (mGluR1): 598 nM | EC50 (mGluR5): 138 nM

CC(C)(C)c1cccc(NC(=O)c2cc(Cl)ccc2O)c1 [Compound 18, 5-Chloro-N-(3-tert-butylphenyl)-2-hydroxybenzamide]
mGluR1/mGluR5 Ratio (mGluR1): 1.40 | EC50 (mGluR1): 334 nM | EC50 (mGluR5): 238 nM

Cc1cc(C)cc(NC(=O)c2cc(Cl)ccc2O)c1 [Compound 19]
mGluR1/mGluR5 Ratio (mGluR1): 9.39 | EC50 (mGluR1): 1140 nM | EC50 (mGluR5): 122 nM

O=C(Nc1cc(C(F)(F)F)cc(C(F)(F)F)c1)c1cc(Cl)ccc1O [Compound 20]
mGluR1/mGluR5 Ratio (mGluR1): 1.22 | EC50 (mGluR1): 111 nM | EC50 (mGluR5): 91 nM

CN(C)C(=O)Oc1ccc(Cl)cc1C(=O)Nc1ccc([N+](=O)[O-])cc1Cl [Compound 23, 4-chloro-2-(2-chloro-4-nitrophenylcarbamoyl)phenyl dimethyl carbamate]
EC50 (mGluR1): > 10000 nM | EC50 (mGluR5): > 10000 nM

COC(=O)[C@@H]1CCCN1C(=O)Oc1ccc(Cl)cc1C(=O)Nc1ccc([N+](=O)[O-])cc1Cl [Compound 25]
EC50 (mGluR1): > 10000 nM | EC50 (mGluR5): > 10000 nM

CC(C)(C)OC(=O)[C@@H]1CCCN1C(=O)Oc1ccc(Cl)cc1C(=O)Nc1ccc([N+](=O)[O-])cc1Cl [Compound 26]
EC50 (mGluR1): > 10000 nM | EC50 (mGluR5): > 10000 nM

O=C(Nc1ccc([N+](=O)[O-])cc1Cl)c1cc(Cl)ccc1OC(=O)N1CCC[C@H]1C(=O)O [Compound 27]
EC50 (mGluR1): > 10000 nM | EC50 (mGluR5): > 10000 nM

NCC1(CC(=O)O)CCCCC1 [Gabapentin, gabapentin, reference compound]
% MPE (0-100) 1 hr ([1]; group Average (N 6)): 63.2% | Paw withdrawal thresholds (g; raw data) 1 hr ([1]; group Average (N 6)): 165.0 g | Raw MPE (%) 1 hr ([1]; group Average (N 6)): 77.4% | % MPE (0-100) 1 hr ([1]; individual rat): 53.9% and 100.0% (3×) and 0.8% and 24.4% | Paw withdrawal thresholds (g; raw data) 1 hr ([1]; individual rat): 145 g and 250 g and 190 g and 100 g and 120 g and 185 g | Raw MPE (%) 1 hr ([1]; individual rat): 53.9% and 177.6% and 106.9% and 0.8% and 24.4% and 101.0% | % MPE (0-100) 3 hrs ([1]; group Average (N 6)): 43.5% | Paw withdrawal thresholds (g; raw data) 3 hrs ([1]; group Average (N 6)): 134.2 g | Raw MPE (%) 3 hrs ([1]; group Average (N 6)): 47.7% | % MPE (0-100) 3 hrs ([1]; individual rat): 0.0% (2×) and 34.6% (2×) and 91.7% and 100.0% | Paw withdrawal thresholds (g; raw data) 3 hrs ([1]; individual rat): 70 g and 125 g (2×) and 90 g and 165 g and 230 g | Raw MPE (%) 3 hrs ([1]; individual rat): −43.8% and 34.6% (2×) and −15.3% and 91.7% and 184.4% | % MPE (0-100) 5 hrs ([1]; group Average (N 6)): 17.4% | Paw withdrawal thresholds (g; raw data) 5 hrs ([1]; group Average (N 6)): 96.7 g | Raw MPE (%) 5 hrs ([1]; group Average (N 6)): −0.6% | % MPE (0-100) 5 hrs ([1]; individual rat): 0.0% (3×) and 43.6% and 3.8% and 56.9% | Paw withdrawal thresholds (g; raw data) 5 hrs ([1]; individual rat): 60 g and 130 g and 85 g and 100 g and 140 g and 65 g | Raw MPE (%) 5 hrs ([1]; individual rat): −49.3% and 43.6% and −16.1% and 3.8% and 56.9% and −42.7% | % MPE (0-100) 24 hrs ([1]; group Average (N 6)): 16.4% | Paw withdrawal thresholds (g; raw data) 24 hrs ([1]; group Average (N 6)): 98.3 g | Raw MPE (%) 24 hrs ([1]; group Average (N 6)): 6.7% | % MPE (0-100) 24 hrs ([1]; individual rat): 0.0% (3×) and 23.3% and 58.7% and 16.2% | Paw withdrawal thresholds (g; raw data) 24 hrs ([1]; individual rat): 85 g and 110 g and 80 g and 75 g and 135 g and 105 g | Raw MPE (%) 24 hrs ([1]; individual rat): −12.1% and 23.3% and −19.2% and −26.3% and 58.7% and 16.2% | reversing hyperalgesia ([1]; rat): effective in reversing hyperalgesia

Reference: patent US8614205B2, “Glutamate receptor modulators and therapeutic agents” (priority 2009, dated 2013)
